# Measured values published in patent US20130079345A1, “[…] ACTIVE DISUBSTITUTED TRIAZINE DERIVATIVES” (BAYER INTELLECTUAL PROPERTY GMBH, priority 2010, published 2013).
# Structures can show the parent of a compound that is named as a salt.
# Tests used:
# CDK7/CyclinH/Mat1 = target: T1, CDK7/CyclinH/Mat1 (Homo sapiens, UniProt P50613); experiment: Lance Ultra KinaSelect Assay, CDK7; format: biochemical; conditions: ATP 25 μM, read-out: Inhibition (IC50) CDK7
# T1 construct: purchased Carna Biosciences
# T1 sequence (P50613 whole entry): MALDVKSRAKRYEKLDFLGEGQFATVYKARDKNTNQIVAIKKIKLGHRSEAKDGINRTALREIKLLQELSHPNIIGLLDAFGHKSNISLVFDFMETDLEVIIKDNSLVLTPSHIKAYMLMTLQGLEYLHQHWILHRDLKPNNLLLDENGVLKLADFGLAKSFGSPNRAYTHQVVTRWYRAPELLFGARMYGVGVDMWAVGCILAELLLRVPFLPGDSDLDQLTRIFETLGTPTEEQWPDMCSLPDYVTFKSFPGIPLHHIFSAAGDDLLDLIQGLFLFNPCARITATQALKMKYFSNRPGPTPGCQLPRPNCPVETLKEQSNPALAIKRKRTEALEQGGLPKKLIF
# T1 sequence (P51946 whole entry partner): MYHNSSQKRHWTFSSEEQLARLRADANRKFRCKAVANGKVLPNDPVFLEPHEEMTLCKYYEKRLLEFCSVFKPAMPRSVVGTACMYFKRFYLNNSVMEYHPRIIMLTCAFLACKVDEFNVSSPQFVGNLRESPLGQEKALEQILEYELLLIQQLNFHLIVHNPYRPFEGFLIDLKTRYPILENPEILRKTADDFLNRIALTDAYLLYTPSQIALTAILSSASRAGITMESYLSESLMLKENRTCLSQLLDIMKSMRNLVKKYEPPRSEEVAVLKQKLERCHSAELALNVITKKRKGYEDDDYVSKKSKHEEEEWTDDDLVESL
# T1 sequence (P51948 whole entry partner): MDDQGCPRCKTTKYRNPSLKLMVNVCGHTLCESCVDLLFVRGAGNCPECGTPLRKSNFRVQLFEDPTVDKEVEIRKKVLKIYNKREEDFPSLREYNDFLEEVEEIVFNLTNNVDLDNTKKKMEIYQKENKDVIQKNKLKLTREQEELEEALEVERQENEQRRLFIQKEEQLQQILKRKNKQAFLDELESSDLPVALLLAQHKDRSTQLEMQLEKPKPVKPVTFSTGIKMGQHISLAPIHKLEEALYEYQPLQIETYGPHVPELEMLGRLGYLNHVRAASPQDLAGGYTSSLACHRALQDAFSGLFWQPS
# Protocol: This protocol describes how the Lance Ultra KinaSelect Assay was performed to determine half maximal inhibitory concentration (IC50) of compounds of general formula (I) and CDK/Cyclin complexes. The principle behind this enzymatic assay is based upon the phosphorylation of the ULight-Peptide Substrat. It is detected by using a specific EU-labeled anti-phospho peptide antibody. The binding of the Eu-labeled anti-phospho peptide antibody to the phosphorylated U Light labeled peptide gives rise to a FRET-signal. Binding of an inhibitor to the kinase prevents phosphorylation of the ULight-MBP Substrat, resulting in a loss of FRET.
# The compounds of general formula (I) summarized in Table 5 were diluted from a 10 mM DMSO stock solution 1:10 in a total volume of 15 μL DMSO. This compound predilution was then serial diluted 1:3 over 8 steps in DMSO and briefly spun down. Each compound solution was now diluted 1:20 in Enzymatic Buffer (HEPES: 50 mM, pH: 7.5; MgCl2: 10 mM; EGTA: 1 mM; DTT: 2 mM; Tween-20: 0.01%), mixed thoroughly and spun down. For every sample, 2 μL of the diluted compound were mixed with 6 μL CDK/Cyclin/Substrat solution and […] in a well of a small volume 384 well plate (Corning Incorporated, Corning, N.Y., USA; order no. 3673). […] For positive controls, in each well 2 μL of DMSO solution (1% final DMSO assay concentration) was mixed with 6 μL CDK/Cyclin/Substrat (appropriate final concentration see Table 3) and 2 μL Tracer ATP solution (appropriate final concentration see Table 3). Positive and negative controls were calculated from at least 8 different sample wells. The 384 well plates were mixed in a Teleshaker plate mixer (Beckman Coulter, Brea, Calif., USA) at 2000 rpm for 40 sec, and incubated for 1 h at room temperature. Before reading, 10 μL detection buffer (Lance Detection Buffer 1×; EDTA: […]; Eu-Anti-P-MBP: see Table 3) was added. The FRET signal was measured at 340 nm excitation, 665 nm and 615 nm emission (for the kinase tracer and LanthaScreen Eu-AB, respectively) with an Envision spectrophotometer (Perkin Elmer, Waltham, Mass., USA) with 50 μs delay and 300 μs integration time. IC50 values were determined from the sigmoidal dose response curves with the software Quattro Workflow (Quattro GmbH, Munich, Germany).
# [1] = system: RNA Polymerase II Ser2 phosphorylation (cellular CDK9 activity) in HCT-116 cells; experiment: RNA-Polymerase II Ser2 cellular phosphorylation assay; format: cell-based; conditions: Homo sapiens, normalized with tubulin
# Protocol: HCT-116 cells (DSMZ, Braunschweig, Germany) were maintained in Mc Coy's cell culture medium+glutamine (PAN Biotech GmbH, Aidenbach, Germany) supplemented with 10% fetal calf serum (PAA Laboratories GmbH, Pasching, Austria) and grown at 37° C., 5% CO2. For the cellular phosphorylation assay, cells were seeded with 2×10^5 cells/well/1 ml in 24-well plates (Greiner Bio—One, Frickenhausen, Germany; catalog #662160). The compounds of general formula (I) summarized in Table 6 were diluted from a 10 mM DMSO stock solution 1:10 in a total volume of 15 μL DMSO. After overnight incubation at 37° C./5% CO2, 1.5 μL of a compound diluted in DMSO was added to each sample well. Wells with cells and 0.15% DMSO in culture medium were used as positive controls, wells without cells and 0.15% DMSO in culture medium were used as negative controls. The cells were incubated with the compounds for 72 h at 37° C./5% CO2. Before lysis, cells were washed with phosphate buffered saline. Phosphorylation of RNA Polymerase II Ser2 and tubulin levels for normalization were analyzed afterwards with the Multi-Array technology (Meso Scale Discovery, Gaithersburg, Md., USA), a combination of antibody coupled electrochemiluminescence detection and patterned arrays. Manufacturer's instructions were followed and all solutions were purchased from Meso Scale Discovery. In brief, cells were lysed by 30 min incubation in CLB1 lysis buffer (Zeptosens, Witterswil, Switzerland; 60 μL per well), and supernatants were cleared by centrifugation. For analysis of RNA Polymerase II Ser2-phosphorylation, lysates were diluted 1:50 with Meso Scale Lysis Buffer supplemented with phosphatase- and protease-inhibitors, and 25 µL of each sample was pipetted in a well of a MSD Multi-Array 96-Well Plate Sector® Imager High Bind Plate (Meso Scale Discovery; catalog #L15XB-3/L11XB-3), and incubated for 2 h at room temperature. […] Meso Scale Tris Wash Buffer supplemented with 3% w/v Meso Scale Blocker A were added per well, then plates were sealed and incubated 1 h with vigorous shaking. Plates were washed with 1× Tris Wash Buffer (10× Meso Scale Wash Buffer diluted 1:10 in destilled water), 25 μL of antibody solution was added (CTD7 3E10 antibody from Helmholtz Zentrum Munich, Germany, diluted 1:100 in Meso Scale Tris Wash Buffer supplemented with 1% w/v Meso Scale Blocker A), and plates were washed three times in 1× Tris Wash Buffer. 25 μL of MSD® SULFO-TAG™ Goat-Anti-Rat-Antibody (Meso Scale Discovery, catalog #R^32AH-1, diluted 1:125 in Tris Wash Buffer with 1% (w/v) blocker A) were added per well, plates were sealed and incubated with vigorous shaking for 1 h at room temperature. Finally, plates were washed three times with Tris Wash Buffer, 150 μl 2× Read Buffer (Meso Scale Discovery) were added per well and plates were analyzed immediately in a Sector Imager from Meso Scale Discovery. For determination of tubulin protein levels, samples were analyzed with the protocol for RNA Polymerase II Ser2-phosphorylation, with an anti-tubulin antibody (rabbit; BIODESIGN International, catalog #T59840R, diluted 1:100) and a MSD® SULFO-TAG™ […] (Meso Scale Discovery, catalog #R^32AH-1, diluted 1:125). RNA Polymerase II Ser2 phosphorylation was normalized with tubulin protein levels, and EC50 values were calculated with the software XLFit (IDBS, Guildford, UK) from 2-fold dilution series comprising 6 concentrations in duplicates.
IC50 (CDK7/CyclinH/Mat1) [µM],SMILES,IC50 [1] [µM]
> 10,"COc1ccccc1-c1ncnc(Nc2cccc(CCS(N)(=O)=O)c2)n1 [Compound D1, 2-[3-((4-(2-Methoxyphenyl)-1,3,5-triazin-2-yl)amino)phenyl]ethanesulfonamide]",
> 10,"COc1cc(F)ccc1-c1ncnc(Nc2cccc(CCS(N)(=O)=O)c2)n1 [Compound D2, 2-[3-((4-(4-Fluoro-2-methoxyphenyl)-1,3,5-triazin-2-yl)amino)phenyl]ethanesulfonamide]",10.8
> 10,"COc1ccccc1-c1ncnc(Nc2cccc(NS(C)(=O)=O)c2)n1 [Compound K1, N-[3-((4-(2-Methoxyphenyl)-1,3,5-triazin-2-yl)amino)phenyl]-methanesulfonamide]",
> 10,"CCCS(=O)(=O)Nc1cccc(Nc2ncnc(-c3ccccc3OC)n2)c1 [Compound L1, N-[3-((4-(2-Methoxyphenyl)-1,3,5-triazin-2-yl)amino)phenyl]-propanesulfonamide]",> 30

# The next lines start with the molecule.
SMILES,IC50 (CDK7/CyclinH/Mat1) [µM],IC50 [1] [µM]
"COc1ccccc1-c1ncnc(Nc2cccc(CS(N)(=O)=O)c2)n1 [B1′, 3-[(4-(2-Methoxyphenyl)-1,3,5-triazin-2-yl)amino]benzenemethanesulfonamide trifluoroacetic acid salt]",> 10,10.9
"COc1cc(F)ccc1-c1ncnc(Nc2cccc(CS(N)(=O)=O)c2)n1 [B2″, 1-(3-{[4-(4-fluoro-2-methoxyphenyl)-1,3,5-triazin-2-yl]amino}phenyl)methanesulfonamide trifluoroacetic acid salt]",> 10,3.64
"NS(=O)(=O)Cc1cccc(Nc2ncnc(-c3ccccc3OCc3ccccc3)n2)c1 [B13′, 3-[(4-(2-Benzyloxyphenyl)-1,3,5-triazin-2-yl)amino]benzenemethanesulfonamide trifluoroacetic acid salt]",> 10,
"COc1ccccc1-c1ncnc(Nc2cccc(S(N)(=O)=O)c2)n1 [C1′, 3-[(4-(2-Methoxyphenyl)-1,3,5-triazin-2-yl)amino]benzenesulfonamide trifluoroacetic acid salt]",> 10,2.87
"COc1ccc(F)cc1-c1ncnc(Nc2cccc(CS(N)(=O)=O)c2)n1 [Compound B3, 3-[(4-(5-Fluoro-2-methoxyphenyl)-1,3,5-triazin-2-yl)amino]benzenemethanesulfonamide]",,9.62
"COc1cccc(F)c1-c1ncnc(Nc2cccc(CS(N)(=O)=O)c2)n1 [Compound B4, 3-[(4-(6-Fluoro-2-methoxyphenyl)-1,3,5-triazin-2-yl)amino]benzenemethanesulfonamide]",> 10,49.8
"COc1cc(Cl)ccc1-c1ncnc(Nc2cccc(CS(N)(=O)=O)c2)n1 [Compound B6, 3-[(4-(4-Chloro-2-methoxyphenyl)-1,3,5-triazin-2-yl)amino]benzenemethanesulfonamide]",> 10,15.3
"CCOc1ccccc1-c1ncnc(Nc2cccc(CS(N)(=O)=O)c2)n1 [Compound B12, 3-[(4-(2-Ethoxyphenyl)-1,3,5-triazin-2-yl)amino]benzenemethanesulfonamide]",> 10,17.5
"NS(=O)(=O)Cc1cccc(Nc2ncnc(-c3ccccc3Oc3ccccc3)n2)c1 [Compound B14, 1-(3-{[4-(2-phenoxyphenyl)-1,3,5-triazin-2-yl]amino}phenyl)methanesulfonamide]",,14.5
"NS(=O)(=O)Cc1cccc(Nc2ncnc(-c3ccccc3OCc3ccncc3)n2)c1 [Compound B16, 3-[(4-(2-((4-Pyridinyl)methoxy)phenyl)-1,3,5-triazin-2-yl)amino]benzenemethanesulfonamide]",> 10,11.9
"COc1cnccc1-c1ncnc(Nc2cccc(CS(N)(=O)=O)c2)n1 [Compound B19, 3-[(4-(3-Methoxypyridin-4-yl)-1,3,5-triazin-2-yl)amino]benzenemethanesulfonamide]",,15.5
